US9078871B2, “Estrogen receptor modulators and uses thereof” (SERAGON PHARMACEUTICALS, INC., priority 2010, dated 2015)

Columns and labels:
Format in all cases: cell-based
[1] = biological target: T1, ER-α (Homo sapiens, UniProt P03372); assay: ER-α in Cell Western Assay (SP1); settings: MCF-7 cells, SP1 rabbit monoclonal Ab, 4 or 24 hr post compound addition, read-out: ER In-Cell Western Assay (SP1); for Emax: MCF7, Max Response; for DC50: IC50
T1 construct: endogenous in cells; host or cells: MCF-7
T1 sequence (P03372 1-595): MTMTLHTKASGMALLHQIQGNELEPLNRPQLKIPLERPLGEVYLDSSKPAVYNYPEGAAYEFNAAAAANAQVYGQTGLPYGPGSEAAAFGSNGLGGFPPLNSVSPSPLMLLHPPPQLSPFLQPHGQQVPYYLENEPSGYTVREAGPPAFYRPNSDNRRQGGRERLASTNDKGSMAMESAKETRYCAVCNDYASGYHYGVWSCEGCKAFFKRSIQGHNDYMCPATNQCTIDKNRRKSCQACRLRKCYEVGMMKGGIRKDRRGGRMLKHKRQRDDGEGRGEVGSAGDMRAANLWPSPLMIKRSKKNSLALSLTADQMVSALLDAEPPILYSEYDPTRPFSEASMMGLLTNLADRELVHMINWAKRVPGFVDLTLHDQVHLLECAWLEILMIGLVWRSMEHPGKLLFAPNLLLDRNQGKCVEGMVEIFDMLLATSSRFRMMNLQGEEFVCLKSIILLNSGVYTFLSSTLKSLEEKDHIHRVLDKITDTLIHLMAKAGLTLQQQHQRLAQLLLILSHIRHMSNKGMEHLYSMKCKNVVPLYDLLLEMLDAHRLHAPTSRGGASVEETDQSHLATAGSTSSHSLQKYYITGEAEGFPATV
Experimental: (§1) MCF-7 cells were adjusted to a concentration of 200,000 cells per mL in RPMI containing 10% charcoal-stripped FBS and 20 mM HEPES. 16 microliters of the cell suspension (3200 cells) was added to each well of a poly-D-lysine 384 well plate, and the cells were incubated overnight to allow the cells to adhere. The following day an eleven point, serial semilog dilution of each compound was added to the cells in 16 μL at a final concentration ranging from 0.3-0.000003 μM. At 4 or 24 hr post compound addition, the cells were fixed (10% formalin in PBS) for 20 minutes. Cells were permeabalized in PBS 0.1% Triton and blocked with LICOR blocking buffer (50 μl/well, 90′). The wells were then incubated overnight at 4° C. with SP1 rabbit monoclonal Ab (Thermo Scientific) diluted 1:1000 in LICOR blocking buffer/0.1% Tween-20. Wells which were treated with blocking buffer with Tween but no antibody were used as a background control. Wells were washed with 0.1% Tween-20/PBS and then incubated in goat anti-rabbit IRDye™ 800CW (LICOR Inc.; 1:1000) and DRAQ5 DNA dye (1:2000 for 2 mM stock) diluted in LICOR blocking buffer containing 0.1% Tween-20 and 0.01% SDS for 60 minutes. Cells were washed (50 μl/well, 5′ each) in 0.1% Tween-20/PBS. Plates were scanned on a LICOR Odyssey infrared imaging system. Integrated intensities in the 800 nm channel and 700 nm channel were measured to determine levels of ER and DNA respectively. Percent ER levels were determined as follows: (Integrated intensity 800 nm sample/integrated intensity 700 nm sample)/(Integrated intensity 800 nm untreated cells/integrated intensity 700 nm untreated cells)×100=% ER levels.

[2] = system: MCF-7 cells; assay: Breast Cancer Cell Viability Assay (MCF7 Viability Assay); settings: 5 days' compound exposure, CellTiter-Glo; for IC50: Homo sapiens, MCF7, 120 h
Experimental: MCF-7 cells were adjusted to a concentration of 20,000 cells per mL in RPMI containing 10% FBS and 20 mM HEPES. 16 microliters of the cell suspension (320 cells) was added to each well of a 384 well plate, and the cells were incubated overnight to allow the cells to adhere. The following day an eleven point, serial semilog dilution of each compound was added to the cells in 16 μL at a final concentration ranging from 0.3-0.000003 μM. After 5 days' compound exposure, 16 μL of CellTiter-GLo (Promega, Madison Wis.) was added to the cells the relative luminescence units (RLUs) of each well was determined. CellTiter-Glo added to 32 μL of medium without cells was used to obtain a background value. The Percent viability of each sample was determined as follows: (RLU sample-RLU background/RLU untreated cells-RLU background)×100=% viability.

[3] = biological target: T1, ER-α; assay: ER-α In Cell Western Assay (ER1D5); settings: MCF-7 cells, ER1D5 antibody, 4 or 24 hr post compound addition, read-out: ER In-Cell Western Assay (ER1D5); for Emax: MCF7, Max Response; for DC50: IC50
Experimental: as §1, with “with ER1D5 (Santa Cruz Biotechnology)” for “with SP1 rabbit monoclonal Ab (Thermo Scientific)”, “diluted 1:100” for “diluted 1:1000”, “goat anti-mouse” for “goat anti-rabbit”

Row | Emax [1] | DC50 [1] | IC50 [2] | Compound | MCF7 Viability Assay Max Response [2] | Emax [3] | DC50 [3]
1 | 60 to 85% | ≤ 1 nM | ≤ 1 nM | CC1=C(c2cccc(O)c2)C(c2ccc(OC[C@H](C)N3CCCCC3)cc2)Oc2ccc(O)cc21 (stereo partly drawn) [Example 1, 3-(3-Hydroxyphenyl)-4-methyl-2-(4-((S)-2-(piperidin-1-yl)propoxy)phenyl)-2H-chromen-6-ol] | ++ (++ = a single % value ≧50%) | 40 to 65% | ≤ 1 nM
2 | ≥ 85% | ≤ 1 nM | ≤ 1 nM | CC1=C(c2cc(O)ccc2F)C(c2ccc(OC[C@H](C)N3CC[C@@H](C)C3)cc2)Oc2ccc(O)cc21 (stereo partly drawn) [Example 62, 3-(2-Fluoro-5-hydroxyphenyl)-4-methyl-2-(4-((S)-2-((R)-3-methylpyrrolidin-1-yl)propoxy)phenyl)-2H-chromen-6-ol] | ++ (++ = a single % value ≧50%) |  | 
3 | 60 to 85% | ≤ 1 nM | ≤ 1 nM | CC1=C(c2ccc(F)cc2)C(c2ccc(OC[C@H](C)N3CCC[C@H]3C)cc2)Oc2ccc(O)cc21 (stereo partly drawn) [Example 63, 3-(4-Fluorophenyl)-4-methyl-2-(4-((S)-2-((R)-2-methylpyrrolidin-1-yl)propoxy)phenyl)-2H-chromen-6-ol] | ++ (++ = a single % value ≧50%) |  | 
4 | ≥ 85% | ≤ 1 nM | ≤ 1 nM | CC1=C(c2cccc(O)c2)C(c2ccc(OC[C@H](C)N3CC[C@@H](F)C3)cc2)Oc2ccc(O)cc21 (stereo partly drawn) [Example 64, 2-(4-((S)-2-((R)-3-Fluoropyrrolidin-1-yl)propoxy)phenyl)-3-(3-hydroxyphenyl)-4-methyl-2H-chromen-6-ol] | ++ (++ = a single % value ≧50%) |  | 
5 | 60 to 85% | > 1 nM | > 1 nM | CC1=C(c2ccc(C(F)(F)F)c(O)c2)C(c2ccc(OC[C@H](C)N3CC[C@@H](C)C3)cc2)Oc2ccc(O)cc21 (stereo partly drawn) [Example 68, 3-(3-Hydroxy-4-(trifluoromethyl)phenyl)-4-methyl-2-(4-((S)-2-((R)-3-methylpyrrolidin-1-yl)propoxy)phenyl)-2H-chromen-6-ol] | ++ (++ = a single % value ≧50%) |  | 
6 | 60 to 85% | ≤ 1 nM | > 1 nM | CC1=C(c2ccc(O)c(C(F)(F)F)c2)C(c2ccc(OC[C@H](C)N3CC[C@@H](C)C3)cc2)Oc2ccc(O)cc21 (stereo partly drawn) [Example 69, 3-(4-Hydroxy-3-(trifluoromethyl)phenyl)-4-methyl-2-(4-((S)-2-((R)-3-methylpyrrolidin-1-yl)propoxy)phenyl)-2H-chromen-6-ol] | ++ (++ = a single % value ≧50%) |  | 
7 | 60 to 85% | ≤ 1 nM | > 1 nM | CC1=C(c2ccc(F)cc2)C(c2ccc(OC[C@H](C)N3CCOCC3)cc2)Oc2ccc(O)cc21 (stereo partly drawn) [Example 70, 3-(4-Fluorophenyl)-4-methyl-2-(4-((S)-2-morpholinopropoxy)phenyl)-2H-chromen-6-ol] | ++ (++ = a single % value ≧50%) |  | 
8 | 60 to 85% | ≤ 1 nM | > 1 nM | CC1=C(c2ccc(F)cc2)C(c2ccc(OC[C@H](C)N3CC4CC4C3)cc2)Oc2ccc(O)cc21 (stereo partly drawn) [Example 71, 2-(4-((2S)-2-(3-Azabicyclo[3.1.0]hexan-3-yl)propoxy)phenyl)-3-(4-fluorophenyl)-4-methyl-2H-chromen-6-ol] | ++ (++ = a single % value ≧50%) |  | 

Row | Compound | Emax [1] | DC50 [1] | IC50 [2] | MCF7 Viability Assay Max Response [2] | Emax [3] | DC50 [3]
9 | CC1=C(c2cccc(O)c2)C(c2ccc(OC[C@H](C)N3CC[C@@H](C)C3)cc2)Oc2ccc(O)cc21 (mixture of isomers) [Example 2, 3-(3-Hydroxyphenyl)-4-methyl-2-(4-((S)-2-((R)-3-methylpyrrolidin-1-yl)propoxy)phenyl)-2H-chromen-6-ol] | ≥ 85% | ≤ 1 nM | ≤ 1 nM | ++ (++ = a single % value ≧50%) | ≥ 65% | ≤ 1 nM
10 | CC1=C(c2ccc(F)cc2)C(c2ccc(OC[C@H](C)N3CC[C@@H](C)C3)cc2)Oc2ccc(O)cc21 (mixture of isomers) [Example 30, 3-(4-Fluorophenyl)-4-methyl-2-(4-((S)-2-((R)-3-methylpyrrolidin-1-yl)propoxy)phenyl)-2H-chromen-6-ol] | 60 to 85% | ≤ 1 nM | ≤ 1 nM | ++ (++ = a single % value ≧50%) | ≥ 65% | ≤ 1 nM
11 | CC1=C(c2cccc(O)c2)[C@H](c2ccc(OC[C@H](C)N3CC[C@@H](C)C3)cc2)Oc2ccc(O)cc21 (single isomer, unassigned) [Example 2a] | ≥ 85% | ≤ 1 nM | ≤ 1 nM | ++ (++ = a single % value ≧50%) | ≥ 65% | ≤ 1 nM
12 | CC1=C(c2cccc(O)c2)[C@@H](c2ccc(OC[C@H](C)N3CC[C@@H](C)C3)cc2)Oc2ccc(O)cc21 (single isomer, unassigned) [Example 2b] | ≥ 85% | > 1 nM | > 1 nM | ++ (++ = a single % value ≧50%) | ≥ 65% | > 1 nM
13 | CC1=C(c2cccc(O)c2)C(c2ccc(OC[C@H](C)N3C4CCC3CC4)cc2)Oc2ccc(O)cc21 (stereo partly drawn) [Example 67, 2-(4-((S)-2-(7-Azabicyclo[2.2.1]heptan-7-yl)propoxy)phenyl)-3-(3-hydroxyphenyl)-4-methyl-2H-chromen-6-ol] | < 60% | ≤ 1 nM | ≤ 1 nM | ++ (++ = a single % value ≧50%) |  | 
